For test [1] the following is noted: cited from earlier work.
Test [2] concerns human lung adenocarcinoma LXFL. Put plainly: Clonogenic assay under aerobic and hypoxic conditions, LXFL. Format: cell-based. The following applies: LXFL cells. How it is done:
(§1) Evaluation of the Cytotoxicity of Compounds by Clonogenic Assay Under Aerobic and Hypoxic Conditions.
(§2) Compounds representative of the invention were evaluated under both aerobic and hypoxic conditions in clonogenic assays, using three cell lines: human colon carcinoma HT-29, murine SCCVII, and human lung adenocarcinoma LXFL. Clonogenic survival was determined using aerobic and hypoxic SCCVII cell suspensions. Drug exposures were performed using continuously stirred and gassed single cell suspensions (10^6 cells/mL) at 37° C., equilibrated with 5% CO2 in air or N2 for 60 min before drug addition. After a 60 min drug exposure cells were washed by centrifugation and plated to determine colony formation Cytotoxicity was measured as the concentration required to reduce plating efficiency to 10% of controls (C10). The hypoxic cytotoxicity ratio (HCR) was determined as the ratio of the C10 values under aerobic and hypoxic conditions. The relative hypoxic toxicity (RHT) was determined as the ratio of hypoxic TPZ C10 to hypoxic BTO C10. Abbreviations used in Table 2 are:
(§3) C10=The concentration of drug (in micromolar) to reduce viable cell numbers to 10% of those of control cell cultures grown under the same conditions but not exposed to drug
(§4) RHT=Relative hypoxic toxicity is defined as the ratio of concentrations of Tirapazamine/test compound to give equal cell killing under hypoxic conditions.
(§5) HCR=Hypoxic cytotoxicity ratio is defined as the ratio of drug concentrations under aerobic and hypoxic condition to produce equal cell survival (10%) determined by clonogenic assay

For test [3], the system named is human colon carcinoma HT-29. Nature of the test: Proliferation assay (IC50) under aerobic and hypoxic conditions, HT-29. Format: cell-based.
Test [4] relates to human colon carcinoma HT-29. Nature of the test: Clonogenic assay under aerobic and hypoxic conditions, HT-29. It counts as cell-based. The following applies: HT 29 cells. How it is done:
as §1, §2, §3, §4, §5

In test [5] the test system is human cervical carcinoma SiHa. Nature of the test: Proliferation assay (IC50) under aerobic and hypoxic conditions, SiHa. Format: cell-based. How it is done: Evaluation of the Cytotoxicity of Compounds by Proliferation Assay (IC50) Under Aerobic and Hypoxic Conditions.
Compounds representative of the invention were evaluated under both aerobic and hypoxic conditions in a proliferation assay (IC50), using two cell lines: human colon carcinoma HT-29, and human cervical carcinoma SiHa.
Drug exposures were performed in 96-well plates (Nunc) using either a 37° C. humidified incubator (20% O2, 5% CO2) or in the incubator compartment (37° C.) of an anaerobic chamber (Shell Lab) where palladium catalyst scrubbed gas (90% N2, 5% H2, 5% CO2) ensures severe anoxia (<0.001% O2). For each experiment, compounds were simultaneously tested under both oxic and hypoxic conditions against the HT-29 cell line and included TPZ as an independent internal control at the front and back of the assay (n=2). Final data was pooled from a series of seven independent experiments and is calculated using inter-experimental means. In all cases, 8-methyl-5-nitroquinoline was used as a second internal control to confirm that strict hypoxia was present during the experiment. (Siim et al. Br. J. Cancer 1994, 70, 596-603). Cell cultures were grown in αMEM (Gibco) containing 5% heat inactivated FCS and maintained in exponential growth phase. For each individual experiment an appropriate number of cells were seeded (HT-29=1000) into wells in αMEM÷10% FCS+10 mM added glucose+100 μM 2′-deoxycytidine (2′dCyd), and allowed to attach for 3 h. High glucose (final concentration 17 mM) and the presence of 2′-dCyd minimize hypoxia-induced cell cycle arrest. Replicates were then exposed to BTOs, using 2-fold serial dilutions in triplicate, for a further 4 h. Subsequently cells were washed free of compound using complete media (without glucose/2′-dCyd) and allowed to grow for 5 (oxic) or 6 (anoxic) days. Plates were stained as described previously (Wilson et al., J. Med. Chem. 1989, 32, 31-38) and IC50 values determined.
IC50=The concentration of drug (in micromolar) to reduce viable cell numbers to 50% of those of control cell cultures grown under the same conditions but not exposed to drug
as §4
HCR=Hypoxic cytotoxicity ratio is defined as the ratio of drug concentrations under aerobic and hypoxic condition to produce equal cell survival (50%) determined by proliferation assay

The subject of a further test is murine SCCVII. Put plainly: Clonogenic assay under aerobic and hypoxic conditions, SCCVII. Format: cell-based. The following applies: SCVIII cells.
The mark [6] stands for this setting: ratio of C10 under aerobic and hypoxic conditions.
Setting [7] is: ratio of hypoxic TPZ C10 to hypoxic compound C10.

`Nc1nc2ccccc2[n+]([O-])n1` [SR 4317]: in test [1], the “activity under aerobic or hypoxic conditions” value is “inactive”.
Take `O=C(NCCCNCCCNc1n[n+]([O-])c2ccccc2[n+]1[O-])c1cccc2cc3ccccc3nc12` [Compound 30, N-[3-({3-[(1,4-Dioxido-1,2,4-benzotriazin-3-yl)amino]propyl}amino)propyl]-4-acridinecarboxamide]: the C10 hypoxic in test [2] (hypoxic, 60 min drug exposure) worked out at 0.4 µM; in test [4] (hypoxic, 60 min drug exposure, concentration reducing plating efficiency to 10% of controls), 0.9 µM. In addition, the HCR in test [2] (setting [6]) came to 12.5; in test [3] (HT-29, ratio of IC50 under aerobic and hypoxic conditions), 167; in test [4] (setting [6]) it was 33.0; in test [5] (ratio of IC50 under aerobic and hypoxic conditions), 41; in the test with murine SCCVII (setting [6]), 21.3. The RHT was found to be 50 in test [2] (setting [7]); 90 in test [3] (HT-29, ratio Tirapazamine/test compound under hypoxic conditions); 78 in test [4] (setting [7]); 121 in test [5] (ratio Tirapazamine/test compound under hypoxic conditions); 20 in the test with murine SCCVII (setting [7]). The half-inhibitory concentration (IC50) (commonly the midpoint of a concentration-inhibition curve) came to 65 nM in test [3] (Homo sapiens, HT-29, hypoxic (anoxia <0.001% O2), 4 h exposure) and 31 nM in test [5] (Homo sapiens, hypoxic, 4 h exposure). Besides, the IC90 in the test on murine SCCVII (Mus musculus, 1 h, hypoxic, 60 min drug exposure, SN (hypoxic), read-out: C10 hypoxic) stood at 300 nM.
Take `Nc1nnc2ccccc2n1` [SR 4330]: the “activity under aerobic or hypoxic conditions” value in test [1] was “inactive”.
